Measurements as given in patent publication US20140158116A1, “INHIBITING TRPA1 FOR THE TREATMENT OF ASTHMA” (Cubist Pharmaceuticals, Inc., priority 2012, published 2014).
“Also recorded” adds a separate entry of the source. Like-named read-outs stand apart in the source and are kept apart here.

Key:
hTRPA1 = hTRPA1 (Homo sapiens, UniProt O75762); test: Whole-cell patch clamp block of inward current through hTRPA1; assay type: cell-based
Procedure: (§1) Data for TRPA1 inhibition and the selectivity of TRPA1 inhibition was obtained by this method for the compound of Formula (Ia) and included in Table 1 and Table 2. All currents were recorded in whole-cell configuration using EPC-9 and EPC-10 amplifiers and Patchmaster software (HEKA). […] The standard pipette solution consisted of 140 mM CsAsp, 10 mM EGTA, 10 mM HEPES, 2.27 mM MgCl2, 1.91 mM CaCl2, 4 mM MgATP, and 0.1-0.3 mM Na2GTP, with pH adjusted to 7.2 with CsOH. In addition, a solution containing 145 mM CsCl, 10 mM HEPES, 10 mM EGTA and 1 mM MgCl2 (pH 7.2 adjusted with CsOH) can be used. The standard bath solution contained 150 mM NaCl, 10 mM HEPES, 10 mM glucose, 4.5 mM KCl, 1 mM EGTA, 3 mM MgCl2, with pH adjusted to 7.4 with NaOH. In some instances, 2 mM CaCl2 was added in place of EGTA and the concentration of MgCl2 was reduced to 1 mM.
Data were collected either by continuous recordings at −60 mV or by applying voltage ramps from a holding potential of 0 mV every 4 s. Continuous recordings were collected at 400 Hz and digitally filtered off-line at 10 Hz for presentation. Voltage ramps were applied from −100 mV to 100 mV over the course of 400 ms, and data were collected at 10 kHz and filtered at 2.9 kHz. Inward and outward currents were analyzed from the ramps at −80 and 80 mV, respectively. Liquid junction potential correction was not used.
Solutions were switched using a gravity-fed continuous focal perfusion system. To achieve rapid temperature changes, two temperature control and perfusion systems were employed simultaneously. For temperatures ≧22° C., a Warner Instruments bipolar temperature controller (TC-344B) and inline heater (SHM-8) were used. […] Temperatures were confirmed using a thermistor (Warner Instruments, TA-29), with temperatures at the recorded cell estimated to be within +/−2° C. of those reported.
IC50 of compounds was estimated by testing each compound at 5 micromolar and 500 nanomolar. […] IC50 for compounds between 500 nanomolar and 5 micromolar was similarly estimated. Compounds blocking 50% or more at 500 nanomolar are retested at multiple concentrations, and the % block at each is fitted by standard equations to determine IC50 accurately using a 5-6 point concentration/response experiment.

[1] = system: incisional spontaneous pain (guarding); test: Surgical incision (Brennan) pain behavior rodent model; assay type: in vivo, rat
Procedure: The compound of Formula (Ia) is also active in rodent models of pain in vivo induced by incision of the plantar surface of the hind paw (i.e., the “Brennan Surgical Model”), as described in Example 7. […] Thirty (30) mg/kg of the compound of Formula (Ia) delivered intraperitoneally (2 doses of 15 mg/kg before and immediately after the surgery) reduces spontaneous pain for up to 2 hours after surgery (FIG. 4). The compound of Formula (Ia), the comparator compound of Formula (III) and ketoprofen were tested by the incisional pain test method reported in Brennan et al., Pain, 1996 March; 64(3):493-501 incorporated herein by reference in its entirety. Briefly, in rats under anesthesia, a 1 cm incision through skin and underlying muscle was made in the bottom of one hind paw. The incision was sutured closed and the animals allowed to regain consciousness in their home cage before being placed on a special mesh rack. The blinded observer subjectively assessed and recorded each animal's pain score every 5 minutes for 1 hour. Pain scores were assigned as follows: Score of 0=Injured paw was held flat on the rack and was bearing weight (=uninjured paw); 1=Injured paw was slightly lifted from the rack but was bearing some weight; 2=Injured paw was flat but was bearing no weight, or heel was lifted high off the rack with only toes touching. At the end of each hour, pain scores were added up and the final score recorded ([…]). In a typical study the efficacy of the drug treatment was determined by comparing the cumulative guarding scores at 1-2 and 3-4 hours following surgical injury to the cumulative guarding scores of animals that received the vehicle.

hTRPV3 = molecular target: T1, hTRPV3 (Homo sapiens, UniProt Q8NET8); test: Patch clamp selectivity, hTRPV3; assay type: cell-based
T1 sequence (Q8NET8 1-790): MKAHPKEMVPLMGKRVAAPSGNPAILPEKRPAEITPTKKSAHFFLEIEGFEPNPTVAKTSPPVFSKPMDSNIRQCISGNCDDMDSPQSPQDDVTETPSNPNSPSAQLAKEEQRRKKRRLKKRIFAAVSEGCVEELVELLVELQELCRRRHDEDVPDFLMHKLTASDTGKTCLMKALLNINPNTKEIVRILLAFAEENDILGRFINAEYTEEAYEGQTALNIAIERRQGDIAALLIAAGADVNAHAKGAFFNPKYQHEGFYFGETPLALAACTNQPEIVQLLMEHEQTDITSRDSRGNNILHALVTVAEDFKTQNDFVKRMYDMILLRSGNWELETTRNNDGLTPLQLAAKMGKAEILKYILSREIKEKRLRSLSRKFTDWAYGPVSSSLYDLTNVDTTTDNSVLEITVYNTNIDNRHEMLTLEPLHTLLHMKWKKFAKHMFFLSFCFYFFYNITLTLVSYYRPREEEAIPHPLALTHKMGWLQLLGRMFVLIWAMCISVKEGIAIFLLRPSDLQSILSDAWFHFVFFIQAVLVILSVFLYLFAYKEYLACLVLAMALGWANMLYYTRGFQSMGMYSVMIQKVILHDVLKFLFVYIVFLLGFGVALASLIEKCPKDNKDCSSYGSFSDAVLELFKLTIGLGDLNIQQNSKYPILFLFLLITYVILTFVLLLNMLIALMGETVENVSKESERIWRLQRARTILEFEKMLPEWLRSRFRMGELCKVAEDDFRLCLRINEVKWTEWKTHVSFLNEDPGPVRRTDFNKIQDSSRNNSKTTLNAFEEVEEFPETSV
Procedure: as §1
Data were collected either by continuous recordings at −60 mV or by applying voltage ramps from a holding potential of 0 mV every 4 s. […] Inward and outward currents were analyzed from the ramps at −80 and 80 mV, respectively. […]
Solutions were switched using a gravity-fed continuous focal perfusion system. […] Temperatures were confirmed using a thermistor (Warner Instruments, TA-29), with temperatures at the recorded cell estimated to be within +/−2° C. of those reported. […]

hTRPA1, sequence (O75762 whole entry): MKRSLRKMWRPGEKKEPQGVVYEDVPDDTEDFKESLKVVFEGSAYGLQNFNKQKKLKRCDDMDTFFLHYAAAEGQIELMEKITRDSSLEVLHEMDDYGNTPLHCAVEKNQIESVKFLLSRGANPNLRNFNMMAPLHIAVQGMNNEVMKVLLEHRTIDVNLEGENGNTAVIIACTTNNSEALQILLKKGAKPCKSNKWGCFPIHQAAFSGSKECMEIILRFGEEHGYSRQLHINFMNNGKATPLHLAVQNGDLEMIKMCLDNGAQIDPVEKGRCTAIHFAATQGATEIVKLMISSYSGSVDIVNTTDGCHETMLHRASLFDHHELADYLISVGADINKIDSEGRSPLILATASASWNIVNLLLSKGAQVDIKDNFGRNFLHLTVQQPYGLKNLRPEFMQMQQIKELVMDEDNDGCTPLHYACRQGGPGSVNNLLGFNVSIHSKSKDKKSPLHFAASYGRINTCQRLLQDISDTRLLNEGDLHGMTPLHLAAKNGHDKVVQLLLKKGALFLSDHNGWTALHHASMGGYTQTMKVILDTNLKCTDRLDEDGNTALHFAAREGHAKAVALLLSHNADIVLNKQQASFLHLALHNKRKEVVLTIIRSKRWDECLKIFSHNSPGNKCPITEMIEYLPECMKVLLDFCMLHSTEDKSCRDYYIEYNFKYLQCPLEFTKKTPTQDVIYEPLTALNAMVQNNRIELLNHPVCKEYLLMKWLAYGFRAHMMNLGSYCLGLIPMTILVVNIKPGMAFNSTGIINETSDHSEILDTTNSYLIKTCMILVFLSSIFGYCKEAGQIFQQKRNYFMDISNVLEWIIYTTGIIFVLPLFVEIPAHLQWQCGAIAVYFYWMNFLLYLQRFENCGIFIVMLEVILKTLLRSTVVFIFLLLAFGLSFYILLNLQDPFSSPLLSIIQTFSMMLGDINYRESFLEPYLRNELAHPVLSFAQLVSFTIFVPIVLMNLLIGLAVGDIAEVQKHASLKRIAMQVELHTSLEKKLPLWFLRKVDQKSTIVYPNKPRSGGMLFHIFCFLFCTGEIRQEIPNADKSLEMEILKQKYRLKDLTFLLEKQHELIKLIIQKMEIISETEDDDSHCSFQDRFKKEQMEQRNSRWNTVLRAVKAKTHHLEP

IC50 (hTRPA1; hTRPA1, Human, current activation 10 micromolar AITC, whole cell patch, read-out: IC50 Inward current): 93 ± 22 nM
IC50 (hTRPA1; hTRPA1, class symbol, read-out: Potency (IC50) Human): 50 to 100 nM
selectivity for block of TRPA1 over all other tested channels (hTRPA1; versus the eight channels of Table 2): at least 100 fold
Fold Selectivity Compared to TRPA1 (hTRPV3): >300 fold
IC50 (hTRPV3; 30 micromolar 2-APB, Inward (−80 mV)): > 32 µM
SMILES: C[C@H]1CCCN1c1ncc(-c2cccc(NC(=O)Cn3cnc4c3c(=O)n(C)c(=O)n4C)n2)cn1 [Formula (Ia)]
time after surgery for which spontaneous pain is reduced ([1]; 30 mg/kg intraperitoneally (2 doses of 15 mg/kg before and immediately after the surgery)): up to 2 hours
reduction of spontaneous pain compared with ketoprofen ([1]; 60 mg/kg i.p. versus ketoprofen 2 doses of 2 mg/kg intraperitoneally): equivalent to ketoprofen; also recorded: better than ketoprofen
time after surgery for which spontaneous pain is reduced ([1]; 60 mg/kg intraperitoneally (2 doses of 30 mg/kg before and immediately after the surgery)): up to 4 hours
